In patent US20050059626A1, “Methods of preventing and treating viral infections using immunomodulatory polynucleotide sequences” (priority 2000, published 2005):

Test system: RSV A2
Experiment: RSV lung titer in cotton rats after non-local (IP or SC) administration
Format: in vivo, cotton rat (Sigmoden hispidis)
Conditions: for RSV titer (log10/g lung) Mean / RSV titer (log10/g lung) in cotton rat no. 1 / RSV titer (log10/g lung) in cotton rat no. 2 / RSV titer (log10/g lung) in cotton rat no. 3 / RSV titer (log10/g lung) in cotton rat no. 4 / RSV titer (log10/g lung) in CR no. 1 / RSV titer (log10/g lung) in CR no. 2 / RSV titer (log10/g lung) in CR no. 3 / RSV titer (log10/g lung) in CR no. 4: Non-ISS = SEQ ID NO:10
Method: Cotton rats, 50-100 g and 4-12 weeks old (Sigmoden hispidis) of either sex were used in these studies. All of the animals were descendants of two pair of cotton rats obtained in 1984 from the Small Animal Section of the Veterinary Research Branch, Division of Research Services, National Institutes of Health.
RSV strain A2 was purchased from the ATCC (ATCC VR26). Working stocks of this virus were prepared as described in detail by Wyde et al. (1995) Pediatr. Res. 38:543-550. ISS sequence tested for RSV experiments was 5′-[…]-3′ (SEQ ID NO:1) (phosphorothioate). Control, non-ISS sequences used were 5′-[…]-3′ (SEQ ID NO:9) (phosphorothioate) and 5′-[…]-3′ (SEQ ID NO:10) (phosphorothioate), as well as PBS.
RSV levels in virus pools and lung lavage fluids (L.F.) were determined using sterile 96-well, flat bottom tissue culture plates (Falcon 3072), serial 3-fold dilutions and 2% FCS-MEM as described in detail previously (Wyde et al., 1995). […] The amount of virus in virus pools was expressed as a median tissue culture infectious doses (TCID50/ml, log10). Titers of virus in L.F. were expressed as TCID50/g lung tissue (log10). The minimum detectable virus concentration in these assays was 1.3 log10 TCID50/ml (virus pools) or 1.6 log10 TCID50/g lung.
Twenty cotton rats were divided into 5 groups of 4 animals. Administered to these animals, either intraperitoneally (IP) or subcutaneously (SC), was PBS, immunostimulatory sequence (ISS) 5′-[…]-3′ (SEQ ID NO:1) or non-ISS sequence 5′-[…]-3′ (SEQ ID NO:10), each sequence at 150 μg/injection. On Day 0 each of these animals was […] IN with 100 TCID50 of RSV A2. Four days later each cotton rat was sacrificed. The lungs of each animal were removed, lavaged and assessed for RSV.

[1] = 150 μg IP Day −1, RSV Day 0, lungs Day 4
[2] = 150 μg IP Day −3, RSV Day 0, lungs Day 4
[3] = 150 μg SC Day −1, RSV Day 0, lungs Day 4
[4] = 150 μg SC Day −3, RSV Day 0, lungs Day 4

5′-TGACTGTGAACGTTCGAGATGA-3′ [SEQ ID NO: 1]
RSV titer (log10/g lung) Mean [1]: 3.6 log10/g lung | RSV titer (log10/g lung) in cotton rat no. 1 [1]: 3.8 log10/g lung | RSV titer (log10/g lung) in cotton rat no. 2 [1]: 3.3 log10/g lung | RSV titer (log10/g lung) in cotton rat no. 3 [1]: 3.3 log10/g lung | RSV titer (log10/g lung) in cotton rat no. 4 [1]: 3.8 log10/g lung | RSV titer (log10/g lung) Mean [2]: 3.7 log10/g lung | RSV titer (log10/g lung) in cotton rat no. 1 [2]: 3.3 log10/g lung | RSV titer (log10/g lung) in cotton rat no. 2 [2]: 3.8 log10/g lung | RSV titer (log10/g lung) in cotton rat no. 3 [2]: 3.8 log10/g lung | RSV titer (log10/g lung) in cotton rat no. 4 [2]: 3.8 log10/g lung | RSV titer (log10/g lung) Mean [3]: 4.0 log10/g lung | RSV titer (log10/g lung) in CR no. 1 [3]: 4 log10/g lung | RSV titer (log10/g lung) in CR no. 2 [3]: 4.5 log10/g lung | RSV titer (log10/g lung) in CR no. 3 [3]: 3.5 log10/g lung | RSV titer (log10/g lung) in CR no. 4 [3]: 4 log10/g lung | RSV titer (log10/g lung) Mean [4]: 4.1 log10/g lung | RSV titer (log10/g lung) in CR no. 1 [4]: 4 log10/g lung | RSV titer (log10/g lung) in CR no. 2 [4]: 4.5 log10/g lung | RSV titer (log10/g lung) in CR no. 3 [4]: 4 log10/g lung | RSV titer (log10/g lung) in CR no. 4 [4]: 4 log10/g lung | Reduction in RSV viral titers compared to PBS (IP and SC administration of 150 μg): failed to cause a statistically significant reduction in viral titers
